# Measured values as given in PMC10514136, “Peptide-conjugated antimiRs improve myotonic dystrophy type 1 phenotypes by promoting endogenous MBNL1 expression” (Molecular Therapy. Nucleic Acids, 2023).
# Several values for one entry are separate records, joined by “and”; a condition that tells them apart may be missing. Equal values may be shown once. Read-outs that look alike come from different tables or passages of the source.
# Columns and labels:
# [1] = system: MBNL1 protein levels in DM1 cells; assay type: cell-based, human; conditions: for Tindex (therapeutic index): Tindex = TC50 x Emax / EC50; for EC50: median effective concentration for MBNL1 increase, DM1 myotubes, lipofection (X-tremeGENE HP), medium replaced after 4 h, cells collected day 4, each concentration in triplicate; for MBNL1 fold change: vs untreated DM1 cells
# Experimental: Immortalized MyoD-inducible (doxycycline) DM1 and control fibroblasts were kindly provided by Dr Furling (Institute of Myology, Paris, France).[38] For the activity assay, cells were seeded in 6-well plates at a density of 8 × 10^4 cells/well and grown in DMEM with 4.5 g/L glucose, 1% P/S, and 10% FBS (Sigma, St. Louis, MO). […] In all cases, the cells were grown at 37°C in a humidified atmosphere containing 5% CO2. Transdifferentiation was induced at day 0, and transfection was performed by lipofection with X-tremeGENE HP (Roche, Basel, Switzerland) 24 h later, with antimiRs and test compounds in the cell medium at different concentrations (from 0.4 nM to 5 μM). The medium was replaced with fresh differentiation medium 4 h afterward. In the gymnosis assay, test compounds were added to the culture medium only at the corresponding EC50 concentration. Cells were collected on day 4 of differentiation and were processed for protein extraction.
# For total protein extraction, human muscle cells were sonicated while mouse muscles (gastrocnemius and quadriceps) were homogenized in Pierce RIPA buffer (Thermo Scientific, Waltham, MA) supplemented with protease and phosphatase inhibitor cocktails (Roche Applied Science, Penzberg, Germany). Quantification of total protein was performed with a Pierce BCA protein assay kit (Thermo Scientific) using bovine serum albumin as standard.
# A 96-well plate QDB assay was used[87] to determine MBNL1 protein levels in all replicates and concentrations of each ON tested. This technique allows for high-throughput screening of low protein concentration samples over conventional western blot (WB) (Figure S9).[88] Cell samples (1 μg/well) and mice samples (2 μg/well) were prepared with 4× loading buffer, denatured (100°C for 5 min) and loaded in QDB plates (Quanticision Diagnostics, Research Triangle Park, NC). For the quantification of in vitro samples, the QDB was performed exactly as described in Moreno et al.[87] […] For Mbnl1 quantification in mouse muscle tissues, we implemented the following modifications: each sample was loaded in quadruplicate on three different plates. One was used to detect Mbnl1 with a mouse MB1a(4A8) antibody (DSHB, Iowa City, IA) using a 1:200 dilution. A second plate was used to quantify tubulin (endogenous normalization control) with a mouse 12G10 antibody (DSHB) using a 1:1,000 dilution. A third plate was used to quantify IgG signal (negative control to subtract background) using an anti-mouse-IgG secondary antibody (Sigma-Aldrich) at 1:3,500 dilution. […] All primary antibodies were detected using horseradish peroxidase-conjugated anti-mouse-IgG secondary antibody (1:5,000 for the anti-mouse plate, 1:2,000 for cell plates, and 1:3,500 for mouse plates [Sigma-Aldrich, MO]). Immunoreactive bands were detected using Pierce ECL Western reagent (Thermo Scientific), and luminescence levels were determined using an Infinite M200 PRO plate reader (Tecan). […] WB assay was performed as described previously.[20]
# After obtaining the TC50, EC50, and Emax in vitro, we defined a Tindex as follows: Tindex=TC50×Emax/EC50
# Atp2a1 exon 22 = experiment: Alternative splicing of Atp2a1 exon 22 in muscle by RT-PCR (PSI, splice recovery); assay type: in vivo, mouse; conditions: HSALR mice, individual mice; for Percentage spliced-in (PSI) Atp2a1 Gast: 9.2 mg/kg (mean) i.v. x3, day 45, gastrocnemius; for Percentage spliced-in (PSI) Atp2a1 Quads: 9.2 mg/kg (mean) i.v. x3, day 45, quadriceps
# Experimental: Total RNA from murine gastrocnemius and quadriceps muscle was isolated using the miRNeasy Mini Kit (QIAGEN, Hilden, Germany) according to the manufacturer’s instructions. One microgram of RNA was digested with DNase I (Invitrogen, Carlsbad, CA) and reverse transcribed with SuperScript II (Invitrogen) using random hexanucleotides. For subsequent PCR reactions, 20 ng of cDNA was used with GoTaq polymerase (Promega). Specific primers were used to analyze the alternative splicing of Nfix, Atp2a1, and Clcn1 in mouse samples (both muscles). Gapdh levels established the endogenous reference levels using 0.2 ng of cDNA. PCR products were separated on a 2% agarose gel and quantified using ImageJ software (NIH, Bethesda, MD). PSR index was defined as value%SI minus X¯%DSI , divided by X¯%DSI minus X¯%HSI (SI, splicing inclusion of each sample; DSI, disease splicing inclusion; HSI, healthy splicing inclusion). Overall, PSR indicates the amount in both muscles analyzed. Primer sequences and exons analyzed are available in Cerro-Herreros et al.[20] In the case of off-targets, interleukins, and muscle regeneration marker Mstn-1, primers sequences are available in Table S5. We used 1 ng of mouse tissue cDNA as a template for multiplex qPCR using the QuantiFast Probe PCR Kit reagent. Commercial TaqMan probes (QIAGEN) were used for mouse (Mbnl1 and Mbnl2; FAM-labeled probes) and reference (GAPDH; MAX-labeled probe) genes. Results were normalized to Gapdh endogenous gene expression.
# We used homozygous transgenic HSA^LR (line 20 b) mice,[90] which were kindly provided by Dr Thornton (Rochester, NY) and were housed and bred in our animal facility. Experimental groups were FVB as healthy control and HSA^LR treated with a scrambled ON (SC) and PBS as negative controls, and HSA^LR mice treated with all six experimental CPP-PMOs. The mice were randomly allocated to the different treatments as follows: in each cage, each mouse was ear-marked as it was taken out, and each mouse was then assigned to a different treatment. […] Mice were sacrificed 45 days after the first injection and the tissues of interest were frozen in liquid nitrogen for the molecular and histological assays. All the mice used in this study ranged from 5 to 5.5 months of age and all were males.
# [2] = system: IL-1β, IL-6, MCP-1, IL-12β, TNF-α, IL-15, Mstn-1; experiment: Proinflammatory cytokines and Mstn-1 in quadriceps by qRT-PCR; assay type: in vivo, mouse
# [3] = HSALR mice, 9.2 mg/kg (mean) i.v. x3, day 45, qRT-PCR
Substance,Tindex (therapeutic index) [1],EC50 [1] [µM],Percentage spliced-in (PSI) Atp2a1 Gast (Atp2a1 exon 22),Percentage spliced-in (PSI) Atp2a1 Quads (Atp2a1 exon 22),"Mstn-1 expression in quadriceps [2, 3]",further results
"6aKC-23b (antisense GGUAAUCCCUGGCAAUGUGAU; all phosphorodiamidate morpholino (PMO), T or U not given here; Pip6aKC peptide conjugated)",7.78,0.453,14.22% and 26.08% and 16.73% and 17.96% and 14.74%,29.81% and 23.38% and 17.76% and 24.03% and 33.87%,–,"MBNL1 fold change ([1]; transfection, 1,000 nM): ~2 fold"
"6aKC-218 (antisense ACAUGGUUAGAUCAAGCACAA; all phosphorodiamidate morpholino (PMO), T or U not given here; Pip6aKC peptide conjugated)",22.78,0.138,14.70% and 11.51% and 10.78% and 31.20% and 12.62%,21.08% and 26.96% and 31.16% and 9.84% and 26.51%,–,"MBNL1 fold change ([1]; transfection, 1,000 nM): ~1.5 fold"
"9b2-23b (antisense GGUAAUCCCUGGCAAUGUGAU; all phosphorodiamidate morpholino (PMO), T or U not given here; Pip9b2 peptide conjugated)",25.19,0.016,52.69% and 18.37% and 16.01% and 11.16% and 23.52%,98.27% and 99.53% and 75.32% and 25.61% and 36.45%,downregulation of Mstn-1,"ΔTindex ([1]; fold change in Tindex relative to the control antagomiR against the same miRNA): 0.34 fold change; IL1β Quads (2^-ddCt qPCR assays) ([2]; mouse, in vivo): 0.49; IL6 Quads (2^-ddCt qPCR assays) ([2]; mouse, in vivo): 0.39; IL12β Quads (2^-ddCt qPCR assays) ([2]; mouse, in vivo): 0.57; IL15 Quads (2^-ddCt qPCR assays) ([2]; mouse, in vivo): 2.25; MCP-1 Quads (2^-ddCt qPCR assays) ([2]; mouse, in vivo): 0.55; TNF-α Quads (2^-ddCt qPCR assays) ([2]; mouse, in vivo): 0.26"
"9b2-218 (antisense ACAUGGUUAGAUCAAGCACAA; all phosphorodiamidate morpholino (PMO), T or U not given here; Pip9b2 peptide conjugated)",2.52,0.0647,14.72% and 85.58% and 28.83% and 19.19% and 31.61%,71.69% and 99.29% and 50.19% and 99.72% and 99.28%,–,–
"9b2KC-23b (antisense GGUAAUCCCUGGCAAUGUGAU; all phosphorodiamidate morpholino (PMO), T or U not given here; Pip9b2KC peptide conjugated)",404.48,0.002,11.22% and 31.29% and 33.92% and 10.51% and 42.67%,37.72% and 33.71% and 28.53% and 24.15% and 39.24%,downregulation of Mstn-1,"TC50 relative to EC50 [1]: 128 fold; MBNL1 fold change ([1]; transfection, 200 nM): ~3 fold"
"9b2KC-218 (antisense ACAUGGUUAGAUCAAGCACAA; all phosphorodiamidate morpholino (PMO), T or U not given here; Pip9b2KC peptide conjugated)",198.07,0.00258,12.53% and 17.65% and 19.44% and 12.90% and 35.28%,99.70% and 25.98% and 29.31% and 30.83% and 25.20%,–,"MBNL1 fold change ([1]; transfection, 10 nM): ~6 fold"
"TCTTACCTCAGTTACAATTTA-Pip9b2 [Scramble, reference compound]",–,0.89,6.44% and 27.49% and 24.15% and 5.60% and 15.65%,18.65% and 34.43% and 18.71% and 17.01% and 7.50%,not detected,"Emax (maximum fold change) ([1]; highest MBNL1 protein level vs untreated DM1 cells over the concentrations tested, transfection): 1.30 fold change; ability to enhance MBNL1 expression ([1]; transfection, all concentrations tested (10 nM to 5 μM)): no ability to enhance MBNL1 expression at any concentration tested; IL-6 and IL-15 expression in quadriceps [2, 3]: reduced levels of IL-6 and IL-15"
